In brackets after ≈: the same amount, converted by molar mass. Counter-ions that a name gives are not always drawn.

One data set deals with S. aureus 870307. In words: Antibacterial activity (MIC), standard method of the Japanese Society of Chemotherapy. It counts as cell-based. The note with it: Staphylococcus aureus. As for the experimental part: (§1) Antibacterial activity of the compounds of the present invention was measured in accordance with the standard method specified by the Japanese Society of Chemotherapy.

A further data set deals with S. aureus FDA 209-P. Described as above. As to conditions: Staphylococcus aureus, FDA209. It counts as cell-based. As for the experimental part:
as §1

In the next data set the test system is S. pneumoniae 104835. The data set is described as above. In kind it is cell-based. As to conditions: Streptococcus pneumoniae. On the procedure:
as §1

Another data set deals with P. mirabilis 08103. Described as above. It counts as cell-based. As to conditions: Proteus mirabilis. As for the experimental part:
as §1

In a further data set the test system is E. coli NIHJ. The description is as above. It counts as cell-based. The note with it: Escherichia coli. On the procedure:
as §1

For the next data set, the system named is S. pneumoniae J24. The data set is described as above. The note with it: Streptococcus pneumoniae. It counts as cell-based. As for the experimental part: as §1
A further data set relates to S. epidermidis 56500. Described as above. It counts as cell-based. As to conditions: Staphylococcus epidermidis. On the procedure: as §1
A further data set deals with E. faecalis 19433. Described as above. In kind it is cell-based. As to conditions: Enterococcus faecalis. On the procedure: as §1
Data set [1] deals with S. pyogenes JCM5674(ATCC12344). The description is as above. As to conditions: Streptococcus pyogenes. In kind it is cell-based. As for the experimental part:
as §1

The test system of the next data set is P. aeruginosa PAO1. Described as above. In kind it is cell-based. As to conditions: Pseudomonas aeruginosa. As for the experimental part: as §1
A further data set has as its system S. marcescens 10100. Described as above. In kind it is cell-based. The note with it: Serratia marcescens. On the procedure:
as §1

The next data set concerns K. pneumoniae TYPE 1. Described as above. In kind it is cell-based. As to conditions: Klebsiella pneumoniae, TYPE1. On the procedure: as §1

As for `COc1c(N2C[C@H]3C(CF)C[C@@]3(N)C2)c(F)cc2c(=O)c(C(=O)O)cn([C@@H]3C[C@@H]3F)c12` (single isomer, unassigned) [Example 50], the melting point was in the range of 193 to 195 °C.

In the case of `COc1c(N2C[C@]3(N)CC[C@]3(F)C2)c(F)cc2c(=O)c(C(=O)O)cn([C@@H]3C[C@@H]3F)c12` [Example 6, 7-[(1R,5S)-1-Amino-5-fluoro-3-azabicyclo[3.2.0]hept-3-yl]-6-fluoro-1-[(1R,2S)-2-fluorocyclopropyl]-1,4-dihydro-8-methoxy-4-oxoquinoline-3-carboxylic acid], the melting point was 235 °C (dec.).

The compound `Cc1c(N2C[C@H]3CCOC[C@@]3(N)C2)c(F)cc2c(=O)c(C(=O)O)cn([C@@H]3C[C@@H]3F)c12` [Example 41, 7-[(1S,6R)-1-Amino-3-oxa-8-azabicyclo[4,3,0]nonan-8-yl]-6-fluoro-1-[(1R,2S)-2-fluorocyclopropyl]-1,4-dihydro-8-methyl-4-oxoquinoline-3-carboxylic acid] yielded a melting point of 158 to 160 °C.

As to `C[C@H]1COc2c(N3C[C@]4(N)CCC[C@]4(F)C3)c(F)cc3c(=O)c(C(=O)O)cn1c23` [Example 13, 10-[(1R,5S)-1-Amino-5-fluoro-3-azabicyclo[3.3.0]octan-3-yl]-9-fluoro-2,3-dihydro-3-(S)-methyl-7-oxo-7H-pyrido[1,2,3-de][1,4]benzoxazine-6-carboxylic acid], the melting point was 285 to 293 °C (dec.).

Consider `O=C(O)c1cn(C2CC2)c2cc(N3CCNCC3)c(F)cc2c1=O` [CPFX, ciprofloxacin, reference compound], for which the MIC was greater than 6.25 µg/mL in the data set on S. aureus 870307; 0.1 µg/mL (≈ 0.302 µM) in the data set with S. aureus FDA 209-P; greater than 6.25 µg/mL against S. pneumoniae 104835; 0.012 µg/mL (≈ 0.0362 µM) with P. mirabilis 08103; no more than 0.003 µg/mL in the data set with E. coli NIHJ; 0.78 µg/mL (≈ 2.35 µM) in the data set with S. pneumoniae J24. In addition, the minimum inhibitory concentration (MIC) amounted to 0.2 µg/mL (≈ 0.604 µM) in the data set with S. epidermidis 56500, 0.78 µg/mL (≈ 2.35 µM) against E. faecalis 19433, 0.39 µg/mL (≈ 1.18 µM) in [1] and 0.05 µg/mL (≈ 0.151 µM) in the data set with P. aeruginosa PAO1.

`COc1c(N2CC3(C)CCC3(N)C2)c(F)cc2c(=O)c(C(=O)O)cn([C@@H]3C[C@@H]3F)c12` (stereo in doubt) [Example 7, 7-[(1R,5S)-1-Amino-5-methyl-3-azabicyclo[3.2.0]hept-3-yl]-6-fluoro-1-[(1R,2S)-2-fluorocyclopropyl]-1,4-dihydro-8-methoxy-4-oxoquinoline-3-carboxylic acid] gave a melting point of 123 to 125 °C.

Compound `C[C@H]1C[C@@]2(N)CN(c3c(F)cc4c(=O)c(C(=O)O)cn5c4c3OC[C@@H]5C)C[C@@H]12` [Example 3, 10-{(1S,5R,6S)-1-Amino-6-methyl-3-azabicyclo[3.2.0]hept-3-yl}-9-fluoro-2,3-dihydro-3-(S)-methyl-7-oxo-7H-pyrido[1,2,3-de][1, 4]benzoxazine-6-carboxylic acid] displayed a melting point of 122 to 124 °C.

Compound `COc1c(N2C[C@H]3[C@@H](F)CC[C@@]3(N)C2)c(F)cc2c(=O)c(C(=O)O)cn([C@@H]3C[C@@H]3F)c12` [Example 21, 7-[(1S,5R,6S)-1-Amino-6-fluoro-3-azabicyclo[3,3,0]octan-3-yl]-6-fluoro-1-[(1R,2S)-2-fluorocyclopropyl]-1,4-dihydro-8-methoxy-4-oxoquinoline-3-carboxylic acid] came in with a melting point of 117 to 119 °C.

`Cc1c(N2C[C@H]3C(CF)C[C@@]3(N)C2)c(F)cc2c(=O)c(C(=O)O)cn([C@@H]3C[C@@H]3F)c12` (single isomer, unassigned) [Example 51] displayed a melting point of 130 to 133 °C.

Consider `Cc1c(N2CC3(N)CCC4CC43C2)ccc2c(=O)c(C(=O)O)cn([C@@H]3C[C@@H]3F)c12` (single isomer, unassigned) [Example 55], for which the melting point was > 254 °C (dec.).

Regarding `COc1c(N2C[C@@H]3CCCN[C@@H]3C2)c(F)cc2c(=O)c(C(=O)O)cn(C3CC3)c12` [MXFX, moxifloxacin, reference compound], the MIC with S. aureus 870307 is 0.78 µg/mL (≈ 1.94 µM); against S. aureus FDA 209-P, 0.05 µg/mL (≈ 0.125 µM); against S. pneumoniae 104835, 3.13 µg/mL (≈ 7.8 µM); against P. mirabilis 08103, 0.025 µg/mL (≈ 0.0623 µM); in the data set with S. pneumoniae J24 it was 0.1 µg/mL (≈ 0.249 µM); in the data set with S. epidermidis 56500 it was 0.1 µg/mL (≈ 0.249 µM). In addition, the MIC in the data set on S. marcescens 10100 came to 0.2 µg/mL (≈ 0.498 µM); with E. faecalis 19433, 0.2 µg/mL (≈ 0.498 µM); in [1], 0.2 µg/mL (≈ 0.498 µM); against P. aeruginosa PAO1 it was 0.78 µg/mL (≈ 1.94 µM); in the data set on K. pneumoniae TYPE 1, 0.1 µg/mL (≈ 0.249 µM).

The compound `COc1c(N2C[C@@H]3CCC[C@]3(N)C2)c(F)cc2c(=O)c(C(=O)O)cn([C@@H]3C[C@@H]3F)c12` (relative stereo) [Example 12, 7-[(1R*,5S*)-1-Amino-3-azabicyclo[3.3.0]octan-3-yl]-6-fluoro-1-[(1R,2S)-2-fluorocyclopropyl]-8-methoxy-1,4-dihydro-4-oxoquinoline-3-carboxylic acid] showed a melting point of 171 to 174 °C.

Regarding `COc1c(N2CC3(Cl)CCC[C@@]3(N)C2)c(F)cc2c(=O)c(C(=O)O)cn([C@@H]3C[C@@H]3F)c12` (stereo in doubt) [Example 53, 7-[(1R,5R)-1-Amino-5-chloro-3-azabicyclo[3.3.0]octan-3-yl]-6-fluoro-1-[(1R,2S)-2-fluorocyclopropan-1-yl]-1,4-dihydro-8-methoxy-4-oxoquinoline-3-carboxylic acid], the melting point lay in the range of 161 to 163 °C.

Compound `COc1c(N2C[C@H]3COC[C@@]3(N)C2)c(F)cc2c(=O)c(C(=O)O)cn([C@@H]3C[C@@H]3F)c12` [Example 59, 7-[(3aS)-3a-Aminotetrahydrofuro[3,4-c]pyrrol-5-yl]-6-fluoro-1-[(1R,2S)-2-fluorocyclopropyl]-1,4-dihydro-8-methoxy-4-oxoquinoline-3-carboxylic acid] showed a melting point of 201 to 202 °C.

As for `COc1c(N2C[C@H]3C(CF)C[C@@]3(N)C2)c(F)cc2c(=O)c(C(=O)O)cn([C@@H]3C[C@@H]3F)c12` (single isomer, unassigned) [Example 49], the melting point was 122 to 125 °C.

As for `Cc1c(N2CC3(N)CCC4CC43C2)c(F)cc2c(=O)c(C(=O)O)cn([C@@H]3C[C@@H]3F)c12` (single isomer, unassigned) [Example 54], the melting point was in the range of 145 to 149 °C.

The compound `COc1c(N2C[C@H]3C(F)(F)CC[C@@]3(N)C2)c(F)cc2c(=O)c(C(=O)O)cn([C@@H]3C[C@@H]3F)c12` [Example 22, 7-[(1S,5R)-1-Amino-6,6-difluoro-3-azabicyclo[3,3,0]octan-3-yl]-6-fluoro-1-[(1R,2S)-2-fluorocyclopropyl]-1,4-dihydro-8-methoxy-4-oxoquinoline-3-carboxylic acid] had a melting point of 239 to 241 °C.

On to `Cc1c(N2C[C@]3(N)CC[C@]3(F)C2)c(F)cc2c(=O)c(C(=O)O)cn([C@@H]3C[C@@H]3F)c12` [Example 56, 7-{(1R,5S)-1-Amino-5-fluoro-3-azabicyclo[3.2.0]heptan-3-yl}-6-fluoro-1-[(1R,2S)-2-fluorocyclopropan-1-yl]-8-methyl-4-oxo-1,4-dihydroquinoline-3-carboxylic acid], for which the melting point was > 272 °C (dec.).

`COc1c(N2C[C@H]3[C@H](F)CC[C@@]3(N)C2)c(F)cc2c(=O)c(C(=O)O)cn([C@@H]3C[C@@H]3F)c12` [Example 20, 7-{(1S,5R,6R)-1-Amino-6-fluoro-3-azabicyclo[3,3,0]octan-3-yl}-6-fluoro-1-[(1R,2S)-2-fluorocyclopropyl]-1,4-dihydro-8-methoxy-4-oxoquinoline-3-carboxylic acid] gave a melting point of 179 to 181 °C.

The compound `C[C@H]1COc2c(N3C[C@@H]4CCOC[C@@]4(N)C3)c(F)cc3c(=O)c(C(=O)O)cn1c23` [Example 42, 10-[(1S,6S)-1-Amino-3-oxa-8-azabicyclo[4,3,0]nonan-8-yl]-9-fluoro-2,3-dihydro-3-methyl-(S)-7-oxo-7H-pyrido[1,2,3-de][1,4]benzoxazine-6-carboxylic acid] yielded a melting point greater than 300 °C.

Take `N#Cc1c(N2C[C@]3(N)CCC[C@]3(F)C2)c(F)cc2c(=O)c(C(=O)O)cn([C@@H]3C[C@@H]3F)c12` [Example 14, 7-[(1R,5S)-1-Amino-5-fluoro-3-azabicyclo[3.3.0]octan-3-yl]-8-cyano-6-fluoro-1-[(1R,2S)-2-fluorocyclopropan-1-yl]-1,4-dihydro-4-oxoquinoline-3-carboxylic acid]: the melting point is 268 to 280 °C (dec.).

For `COc1c(N2CC3(N)CCC4CC43C2)c(F)cc2c(=O)c(C(=O)O)cn([C@@H]3C[C@@H]3F)c12` (stereo partly drawn) (as salt: methanesulfonate) [Example 57, 7-[6-amino-8-azatricyclo[4.3.0.0^1,3]nonan-8-yl]-6-fluoro-1-[(1R,2S)-2-fluorocyclopropan-1-yl]-8-methoxy-4-oxo-1,4-dihydroquinoline-3-carboxylic acid methanesulfonate], the melting point was 202 to 204 °C.

As usually defined, the melting point is the temperature of the solid-liquid transition. As usually defined, the MIC is the least concentration at which growth counts as inhibited. Read a low MIC as greater potency.

The values above are taken from patent US8618094B2, “Fused substituted aminopyrrolidine derivative” (Daiichi Sankyo Company, Limited, priority 2007, dated 2013).
